Source: patent US20250339566A1, “INHIBITORS OF FIBROBLAST ACTIVATION PROTEIN” (UNIVERSITEIT ANTWERPEN, priority 2022, published 2025)

Columns and labels:
Human recombinant PREP = target: T1, Human recombinant PREP (Homo sapiens, UniProt P48147); test: PREP IC50 measurement (N-succinyl-Gly-Pro-AMC); type: biochemical; conditions: FIG. 1, Compound 1 versus Compound 0
T1 construct: made in house; host or cells: E. coli BL21(DE3)
T1 sequence (P48147 1-710): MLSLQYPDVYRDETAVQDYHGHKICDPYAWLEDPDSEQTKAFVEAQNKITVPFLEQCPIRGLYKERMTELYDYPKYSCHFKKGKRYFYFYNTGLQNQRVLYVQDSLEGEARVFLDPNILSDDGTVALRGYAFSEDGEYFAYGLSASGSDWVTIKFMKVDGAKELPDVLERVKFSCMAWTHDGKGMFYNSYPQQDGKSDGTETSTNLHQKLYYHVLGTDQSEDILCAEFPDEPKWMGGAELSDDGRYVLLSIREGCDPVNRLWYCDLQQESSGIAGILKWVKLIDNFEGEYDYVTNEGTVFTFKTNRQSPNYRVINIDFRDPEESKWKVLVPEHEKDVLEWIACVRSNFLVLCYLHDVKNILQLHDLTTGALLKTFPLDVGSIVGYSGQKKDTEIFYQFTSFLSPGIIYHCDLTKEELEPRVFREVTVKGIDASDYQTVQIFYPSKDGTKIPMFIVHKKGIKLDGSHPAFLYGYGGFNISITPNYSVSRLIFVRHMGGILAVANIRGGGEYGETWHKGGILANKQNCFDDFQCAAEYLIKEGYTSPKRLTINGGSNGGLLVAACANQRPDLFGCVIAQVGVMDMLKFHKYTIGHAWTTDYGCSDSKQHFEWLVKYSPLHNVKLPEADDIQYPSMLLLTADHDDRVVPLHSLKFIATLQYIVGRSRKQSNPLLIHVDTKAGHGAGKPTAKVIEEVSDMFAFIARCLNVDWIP
Source text: Used Enzymes in these Assays: • A gateway-entry clone for human FAP was purchased from Dharmacon (Accession number DQ891423) and the human secretion signal was replaced with the HoneyBee mellitin secretion signal. For transfection and expression of FAP in Sf9 insect cells the C-terminal BaculoDirect kit from LifeTechnologies was used. The enzyme was purified from the supernatant of the insect cells using immobilized Ni-chelating chromatography (GE healthcare, Diegem, Belgium), followed by anion-exchange chromatography using a 1 mL HiTrap Q and size exclusion chromatography using the Superdex 200 column (GE healthcare, Diegem, Belgium). • Human recombinant PREP was expressed in BL21(DE3) cells and purified using immobilized Co-chelating chromatography (GE healthcare), followed by anion-exchange chromatography on a 1 ml Mono Q column (GE healthcare). • DPP4 was purified from human seminal plasma. • Gateway-entry clones for human DPP8 and DPP9 were purchased from Dharmacon (Accession numbers DQ891733 and DQ892325 respectively). For transfection and expression of DPP8 and DPP9 in Sf9 insect cells the N-terminal BaculoDirect kit from LifeTechnologies was used. The enzymes were purified using immobilized Ni-chelating chromatography (GE healthcare, Diegem, Belgium), followed by anion-exchange chromatography using a 1 mL Mono Q (GE healthcare, Diegem, Belgium). • Recombinant human DPP2 was purchased from R&D.
Eight concentrations of inhibitors/probe were tested. The final DMSO concentration was kept constant during the experiment to exclude any effects. Inhibitors were pre-incubated with the enzyme for 15 minutes at 37° C., afterwards the substrate was added and the velocities of AMC release were measured kinetically at λex=380 nm, λem=465 nm for at least 10 minutes at 37° C. […] Eight concentrations of inhibitors were tested. The final DMSO concentration in kept constant during the experiment to exclude any effects. Inhibitors were pre-incubated with the enzyme for 15 minutes at 37° C., afterwards the substrate was added and the velocities of AMC release were measured kinetically at λex=380 nm, λem=465 nm for at least 10 minutes at 37° C. […] At least eight different inhibitor concentrations were used. The final DMSO concentration is kept constant during the experiment to exclude any effects. Inhibitors were pre-incubated with the enzyme for 15 minutes at 37° C., afterwards the substrate was added and the velocities of pNA release were measured kinetically at 405 nm for at least 10 minutes at 37° C. Measurements were done on the Infinite 200 (Tecan Group Ltd.) and the Magellan software was used to process the data. • For DPP2: Initial velocity measurements were carried out. Lys-Ala-pNA was used as the substrate at a concentration of 1 mM at pH 5.5 (100 mM NaAc, 10 mM EDTA, 14 μg/mL aprotinin). Inhibitors were tested at one concentration, 5 μM, being the final concentration in the well. Inhibitors were pre-incubated with the enzyme for 15 minutes at 37° C., afterwards the substrate was added and the velocities of pNA release were measured kinetically at 405 nm for at least 10 minutes at 37° C. Measurements were done on the Infinite 200 (Tecan Group Ltd.) and the Magellan software was used to process the data.

[1] = Partition coefficient (Log D) of radiotracer; type: physicochemical; conditions: organic solvent / aqueous solution (solvents not named); mean with standard deviation (n=8)
Protocol: Radiotracer characterization: To assess the quality and suitability of compound 1 ([^18F]UAMC-4522) for specific applications, such as medical imaging, several parameters were determined. First, the decay-corrected RCY (Radiochemical Yield) was calculated. This indicates the percentage of the desired radioactively labeled molecule after correction for radioactive decay. It is calculated by dividing the amount of radioactively labeled molecule by the total radioactivity, taking into account the time elapsed since radiolabeling. Next, the Apparent Molar Activity (Am) was calculated. This represents the activity of the radiotracer per unit of substance (e.g. per micromole). It is calculated by dividing the activity of the radiotracer by the amount of labeled molecule used. Next, the Radiochemical Purity (RCP) was determined. This indicates the percentage of the radioactively labeled molecule relative to other chemical components or impurities. It is often determined using analytical techniques such as radio-HPLC (High-Performance Liquid Chromatography) or radio-TLC (Thin-Layer Chromatography). Finally, the Partition Coefficient (Log D) was calculated. This reflects the distribution of a substance between two solvents with different polarities. The Log D value represents the ratio of the concentrations of the substance in an organic solvent and an aqueous solution. […]

[2] = In vivo stability of radiotracer in plasma; set-up: species or system CD1 nude mice; conditions: for Mean % intact radiotracer ± SD: CD1 nude mice
Protocol: (§1) For all in vivo studies the following experimental procedure was used. Mice (7- to 8-week old female CD1−/− nude mice) were injected with 5.1-7.4 MBq of compound 1 (n=9) via the lateral tail vein. At 15, 30, 60 (n=3 for each time point) post-radiotracer injection (p.i.) the blood was collected in EDTA-coated tubes through cardiac puncture and the mice were euthanized by cervical dislocation.
From the collected blood, the plasma fraction was obtained by centrifugation at 4,000 g for 7 min, and mixed (200 μL) with an equal volume of cold MeCN to enable sample deproteination. After vigorously vortexing and γ-counting, the samples were centrifuged at 4000 g for 4 min, and the supernatant and the pellet were γ-counted separately to determine the amount of recovered radioactivity in the organic phase. The radioactive contents of the supernatant were analyzed by analytical radio-HPLC. The eluate fractions were collected every 30 s and counted for radioactivity in an automated γ-counter.

U87MG xenografts [3] = test: Ex vivo biodistribution in tumor-bearing animals; set-up: species or system mice; conditions: 60 min p.i.
Protocol: In accordance with the PET results, the biodistribution study confirmed the high and specific tumor uptake of all FAP radioligands at 60 min post-injection (p.i.) (Table 6).

[4] = Biodistribution in control animals (FIG. 3); type: in vivo; conditions: FIG. 3, normal CD1 nude mice, 15, 30, 60 min p.i.
Protocol: as §1
The uptake levels of the tracers were expressed as percentage of the injected dose per gram (% ID g^−1).
FIG. 3 summarizes the tissue biodistribution (% injected dose/gram of tissue) of [^18F]UAMC-4522 (compound 1) and of compound 0 in normal CD1 nude mice after 15, 30, and 60 min p.i. (n=3 per timepoint).

[5] = Metabolic stability comparison (FIG. 2); conditions: FIG. 2, Compound 1 versus Compound 0
U87MG xenografts [6] = conditions: mouse
Protocol: Dynamic whole-body PET images were acquired during 60 min. The average tumor or muscle activity per volume was obtained from the PET images and the decay-corrected time-activity curves (TACs) were extracted. At the end of the scans, the organs and tissues were harvested, weighed and the radioactivity in the samples was measured using an automatic γ-counter.

[7] = female, CD1-/- nude, in vivo, 60 min

selectivity for FAP with respect to PREP (in words) (Human recombinant PREP): significantly higher selectivity for FAP | logD [1]: -1.77 ± 0.01 | Mean % intact radiotracer ± SD ([2]; 15 min p.i.): 74.84 ± 6.62% | Mean % intact radiotracer ± SD ([2]; 30 min p.i.): 60.23 ± 3.60% | Mean % intact radiotracer ± SD ([2]; 60 min p.i.): 56.47 ± 7.81% | Mean % intact radiotracer ± SD ([2]; time 0 min): 99.12 ± 0.51% | in vivo stability (in words) ([2]; compared with the control [68Ga]Ga-DOTA-FAPI-04): significantly higher | Tumor (% ID/g) (U87MG xenografts [3]): 10.98 ± 1.73 % ID/g | Tumor-to-blood (U87MG xenografts [3]): 6.35 ± 1.08 | Tumor-to-liver (U87MG xenografts [3]): 4.77 ± 0.58 | Tumor-to-muscle (U87MG xenografts [3]): 6.54 ± 1.36 | Tumor-to-small intestine (U87MG xenografts [3]): 2.43 ± 0.12 | metabolic stability (in words) [5]: significantly higher metabolic stability | tumor uptake (PET) (U87MG xenografts [6]; [7]): 10.16±2.22 % ID/mL | uptake in the muscle (PET) (U87MG xenografts [6]; [7]): 2.20±0.33 % ID/mL | uptake into tumor tissue in vivo (in words) (U87MG xenografts [6]): significantly higher uptake | nonspecific tumor uptake (in words) (U87MG xenografts [6]; in vivo): lower nonspecific tumor uptake | tumor uptake after pre-injection of UAMC-1110 (blocking study, in words) (U87MG xenografts [6]; in vivo): decrease in tumor uptake
SMILES: [2H]C([2H])([18F])[N+](C)(C)CCCOc1ccc2nccc(C(=O)NCC(=O)N3CC(F)(F)C[C@H]3C#N)c2c1 [Compound 1]
biodistribution / excretion profile (in words) [4]: biodistribution profile including urinary excretion | tumor time-activity curve (in words) (U87MG xenografts [6]; in vivo): early peak uptake in the tumor followed by retention or slight increase in the tumor
